In brackets after ≈: the same amount, converted by molar mass.
Tests used:
Assay type in all cases: functional
Staphylococcus aureus [1] = assay: Minimum inhibitory concentration against 3797 Staphylococcus aureus Clin. isolate VISA
Enterococcus faecium [2] = assay: Minimum inhibitory concentration against 568 Enterococcus faecium (isogenic of L569)
Staphylococcus aureus [3] = assay: Minimum inhibitory concentration against 819 Staphylococcus aureus Smith MSSA
Streptococcus pyogenes = assay: Minimum inhibitory concentration against 49 Streptococcus pyogenes C203
[4] = tested on: Staphylococcus epidermidis; assay: Minimum inhibitory concentration against 147 Staphylococcus epidermidis ATCC 12228
Staphylococcus aureus [5] = assay: Minimum inhibitory concentration against 613 Staphylococcus aureus Clin. isolate Met-R
Staphylococcus aureus [6] = assay: Minimum inhibitory concentration against 3798 Staphylococcus aureus Clin. isolate VISA
Staphylococcus aureus [7] = assay: Minimum inhibitory concentration against 1400 Staphylococcus aureus Clin. isolate Met-R
Enterococcus faecalis [8] = assay: Minimum inhibitory concentration against 1139 Enterococcus faecalis teico-vanco-sensitive
Enterococcus faecalis [9] = assay: Minimum inhibitory concentration against 559 Enterococcus faecalis (isogenic of L 560)
Enterococcus faecalis [10] = assay: Minimum inhibitory concentration against 559 Enterococcus faecalis Van-A
Enterococcus faecium [11] = assay: Minimum inhibitory concentration against 569 Enterococcus faecium clin. isolate Van-A
Enterococcus faecium [12] = assay: Minimum inhibitory concentration against 2215 Enterococcus faecium clin. isolate Van-A
Enterococcus faecalis [13] = assay: Minimum inhibitory concentration against 2981 Enterococcus faecalis clin. Isolate Van-A

Structure (SMILES)	MIC (Staphylococcus aureus [1]) [µg/mL]	MIC (Enterococcus faecium [2]) [µg/mL]	MIC (Staphylococcus aureus [3]) [µg/mL]	MIC (Streptococcus pyogenes) [µg/mL]	MIC [4] [µg/mL]	MIC (Staphylococcus aureus [5]) [µg/mL]	MIC (Staphylococcus aureus [6]) [µg/mL]	MIC (Staphylococcus aureus [7]) [µg/mL]	MIC (Enterococcus faecalis [8]) [µg/mL]	MIC (Enterococcus faecalis [9]) [µg/mL]	MIC (Enterococcus faecalis [10]) [µg/mL]	MIC (Enterococcus faecium [11]) [µg/mL]	MIC (Enterococcus faecium [12]) [µg/mL]	MIC (Enterococcus faecalis [13]) [µg/mL]
CC(=O)N[C@@H]1[C@H](Oc2c3cc4cc2Oc2ccc(cc2Cl)[C@@H](O[C@@H]2O[C@@H](CO)[C@@H](O)[C@H](O)[C@@H]2NC(C)=O)[C@@H]2NC(=O)[C@H](NC(=O)[C@@H]4NC(=O)[C@H]4NC(=O)[C@@H](Cc5ccc(c(Cl)c5)O3)NC(=O)[C@H](N)c3ccc(O)c(c3)Oc3cc(O)cc4c3)c3ccc(O)c(c3)-c3c(O[C@H]4O[C@H](CO)[C@@H](O)[C@@H](O)[C@@H]4O)cc(O)cc3[C@@H](C(=O)O)NC2=O)O[C@@H](CO)[C@@H](O)[C@@H]1O	16 (≈ 9.05 µM)	≤ 0.125	1 (≈ 0.566 µM)	≤ 0.125	2 (≈ 1.13 µM)	1 (≈ 0.566 µM)	4 (≈ 2.26 µM)	1 (≈ 0.566 µM)	–	–	–	–	–	–
CCCCCCCCCCCC(=O)NC1C(Oc2cc3cc(c2OC)Oc2ccc(cc2[N+](=O)[O-])C[C@@H](NC(=O)[C@H](N)CC(C)C)C(=O)N[C@@H](Cc2ccccc2)C(=O)N[C@H]3[C@@H](O)C(=O)NCCCC(=O)N[C@@H](C(=O)NCCCN(C)C)c2ccccc2)OC(CO)C(O)C1O.O=C(O)C(F)(F)F (stereo partly specified)	32	16	–	8	16	32	16	–	32	16	8	8	32	32
CCCCCCCCCCCC(=O)NC1C(Oc2c(Oc3ccc([N+](=O)[O-])cc3)cc3cc2Oc2ccc(cc2[N+](=O)[O-])C[C@@H](NC(=O)[C@H](N)CC(C)C)C(=O)N[C@@H](Cc2ccccc2)C(=O)N[C@H]3[C@H](O)C(=O)O)OC(CO)C(O)C1O.O=C(O)C(F)(F)F (stereo partly specified)	32	64	–	32	–	–	–	–	32	8	8	32	–	–
CC(C)C[C@@H](N)C(=O)N[C@@H]1Cc2ccc(c([N+](=O)[O-])c2)Oc2cc(cc(Oc3ccc([N+](=O)[O-])cc3)c2O)[C@H]([C@@H](O)C(=O)O)NC(=O)[C@H](Cc2ccccc2)NC1=O.Cl	64	–	–	64	–	–	–	–	–	64	64	–	–	–
COc1c(Oc2ccc([N+](=O)[O-])cc2)cc2cc1Oc1ccc(cc1[N+](=O)[O-])C[C@@H](NC(=O)[C@H](N)CC(C)C)C(=O)N[C@@H](Cc1ccccc1)C(=O)N[C@H]2[C@@H](O)C(=O)O.Cl	16	–	–	16	–	–	–	–	64	16	16	–	–	–
CCCCCCCCCCCC(=O)NC1C(Oc2cc3cc(c2OC)Oc2ccc(cc2[N+](=O)[O-])C[C@@H](NC(=O)[C@H](N)CC(C)C)C(=O)N[C@@H](Cc2ccccc2)C(=O)N[C@H]3[C@H](O)C(=O)O)OC(CO)C(O)C1O.Cl (stereo partly specified)	–	–	–	32	–	–	–	–	–	–	–	–	–	–
CCCCCCCCCCCC(=O)NC1C(Oc2cc3cc(c2OC)Oc2ccc(cc2[N+](=O)[O-])C[C@@H](NC(=O)[C@H](N)CC(C)C)C(=O)N[C@@H](Cc2ccccc2)C(=O)N[C@H]3[C@@H](O)C(=O)O)OC(CO)C(O)C1O.Cl (stereo partly specified)	–	64	–	32	64	–	–	–	32	8	8	32	32	32
CN[C@H](CC(C)C)C(=O)N[C@H]1C(=O)N[C@@H](CC(N)=O)C(=O)N[C@H]2C(=O)N[C@H]3C(=O)N[C@H](C(=O)N[C@H](C(=O)O)c4cc(O)cc(O)c4-c4cc3ccc4O)[C@H](O)c3ccc(c(Cl)c3)Oc3cc2cc(c3O[C@@H]2O[C@H](CO)[C@@H](O)[C@H](O)[C@H]2O[C@H]2C[C@](C)(N)[C@H](O)[C@H](C)O2)Oc2ccc(cc2Cl)[C@H]1O [VANCOMYCIN]	8 (≈ 5.52 µM)	2 (≈ 1.38 µM)	1 (≈ 0.69 µM)	≤ 0.125	1 (≈ 0.69 µM)	1 (≈ 0.69 µM)	8 (≈ 5.52 µM)	1 (≈ 0.69 µM)	2 (≈ 1.38 µM)	1 (≈ 0.69 µM)	–	–	–	–

Reference: ChEMBL document CHEMBL1143447, “Identification of synthetic compounds active against VRE: the role of the lipidated aminoglucose and the structure of glycopeptide binding pocket” (2005)
